Structures can show the parent of a compound that is named as a salt. Where two headings read alike, the source gives them in different places.
How the values were obtained:
Arabidopsis thaliana = experiment: Herbicidal activity and tryptophan reversal on Arabidopsis grown on agar medium; format: in vivo; design: key: 0 - no effect; 9 - total kill; C - chlorotic seedlings 4-6 days after treatment
Method: In this experiment, TS inhibitors were tested on Arabidopsis thaliana grown Murashige minimal organics medium, (obtained from Life Technologies, Grand Island, N.Y.), containing 0.7% agar. Compounds were tested at different concentrations to assess their herbicidal activity.

[1] = target: T1, Salmonella typhimurium tryptophan synthase holoenzyme (α2β2), TSα reaction (Salmonella typhimurium, UniProt P00929); experiment: Inhibition of tryptophan synthase by the TSα reaction, microtiter kinetic coupled enzyme assay; format: biochemical; conditions: for IC50: Salmonella holoenzyme, 30 min at 37° C., 100 μM IGP
T1 construct: made in house; host or cells: E. coli strain CB149pSTB7
T1 sequence (P00929 whole entry): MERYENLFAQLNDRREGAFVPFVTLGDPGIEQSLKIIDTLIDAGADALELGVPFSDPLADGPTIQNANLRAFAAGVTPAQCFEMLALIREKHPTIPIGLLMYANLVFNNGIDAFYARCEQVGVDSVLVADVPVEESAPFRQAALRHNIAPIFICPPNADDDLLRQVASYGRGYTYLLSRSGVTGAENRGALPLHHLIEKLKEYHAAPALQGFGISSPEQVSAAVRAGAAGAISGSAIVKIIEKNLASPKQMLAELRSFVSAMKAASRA
T1 sequence (P0A2K1 2-397, further chain): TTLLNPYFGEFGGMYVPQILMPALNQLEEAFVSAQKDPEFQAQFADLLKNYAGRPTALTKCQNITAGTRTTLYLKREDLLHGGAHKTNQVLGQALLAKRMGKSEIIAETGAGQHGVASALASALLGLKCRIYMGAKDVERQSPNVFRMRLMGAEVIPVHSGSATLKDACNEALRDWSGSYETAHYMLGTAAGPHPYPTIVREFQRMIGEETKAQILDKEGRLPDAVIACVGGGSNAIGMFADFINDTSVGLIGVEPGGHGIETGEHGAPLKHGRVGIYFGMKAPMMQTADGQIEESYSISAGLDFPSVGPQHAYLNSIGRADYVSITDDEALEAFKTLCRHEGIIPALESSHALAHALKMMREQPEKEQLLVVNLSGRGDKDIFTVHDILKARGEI
Source text: Inhibitors of TS were identified by their ability to inhibit the production of glyceraldehyde-3-P by the TSα reaction of the Salmonella typhimurium holoenzyme (α2β2) in the presence of a limiting amount of indole-3-glycerolphosphate and an excess of serine
The assay was developed as a new microtiter plate kinetic enzyme assay based on the combined methods of Creighton (EurJBch 13:1-10, 1970) and Creighton and Yanofsky (JBC 241:980, 1966) with modifications. The rate of glyceraldehyde production was measured as the linear […] (spectrophotometric absorbance at 340 nm) in the presence of glyceraldehyde-3-phosphate dehydrogenase in a coupled enzyme assay.
The assay solution contained a test inhibitor compound, 50 mM Tris-Cl (pH 7.8), 6 mM sodium arsenate, 5 μg/ml pyridoxal phosphate, 0.5 mM DTT, 0.18M NaCl, 60 mM serine, 1.6 mM NAD+, 8 e.u./ml yeast glyceraldehyde-3-phosphate dehydrogenase (Sigma, Catalog #G2647; Kirschner et al., Eur J Bch, 1975, 60:513 and approximately 1.5 e.u. Salmonella TS. 100 μM IGP was added to start the reaction, which was run at 37° C. and using 300 μl per assay in a microtiter plate.
The substrate IGP was used at 1.5 to 2 times its Km concentration to enhance the likelihood of identifying weak inhibitors, binding at the substrate binding site. This approach to identifying enzyme inhibitors was novel, since an excess of all substrates, (at least 5-times the Km value of each), is conventionally used in the measurement of enzyme activity.
Potential inhibitors were evaluated by adding 100 μM inhibitor (equimolar to substrate IGP):or less, in a 1:1 dilution series down from 100 μM, until the inhibition measured was less than 15%. Reaction rates at Vmax were compared in the presence and absence of inhibitors.
In addition, some weaker inhibitors were identified following preincubation of the inhibitor with the TS assay mix for 24 hrs prior to the addition of IGP. The identifying weaker inhibitors is to aid in a quantitative structure activity relationship (QSAR) evaluation, or to identify new herbicidal inhibitor leads. The previously known inhibitor IPP was used as a standard in all tests, where the I50 for IPP was 1-2 uM.

Arabidopsis TS enzyme = target: T2, Arabidopsis TS enzyme (Arabidopsis thaliana, UniProt Q42529); experiment: TSα assay with recombinant plant TSα and TSβ expressed in E. coli; format: biochemical; conditions: inhibitor 82 uM; pAC 758 (1.5 ug) + pAC 755 (3 ug)
T2 construct: GST (N, cleaved yes); made in house; host or cells: E. coli DH5α (pGEX-2T constructs)
T2 sequence (Q42529 with tags, fused parts or gaps): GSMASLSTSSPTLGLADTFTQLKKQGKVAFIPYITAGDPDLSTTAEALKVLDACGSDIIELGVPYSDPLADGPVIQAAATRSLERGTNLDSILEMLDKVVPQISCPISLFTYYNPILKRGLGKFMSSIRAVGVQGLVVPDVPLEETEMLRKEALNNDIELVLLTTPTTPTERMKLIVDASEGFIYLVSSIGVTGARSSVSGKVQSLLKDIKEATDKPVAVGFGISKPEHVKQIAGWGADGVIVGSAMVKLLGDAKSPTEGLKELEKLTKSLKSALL
T2 sequence (P14671 with tags, fused parts or gaps partner): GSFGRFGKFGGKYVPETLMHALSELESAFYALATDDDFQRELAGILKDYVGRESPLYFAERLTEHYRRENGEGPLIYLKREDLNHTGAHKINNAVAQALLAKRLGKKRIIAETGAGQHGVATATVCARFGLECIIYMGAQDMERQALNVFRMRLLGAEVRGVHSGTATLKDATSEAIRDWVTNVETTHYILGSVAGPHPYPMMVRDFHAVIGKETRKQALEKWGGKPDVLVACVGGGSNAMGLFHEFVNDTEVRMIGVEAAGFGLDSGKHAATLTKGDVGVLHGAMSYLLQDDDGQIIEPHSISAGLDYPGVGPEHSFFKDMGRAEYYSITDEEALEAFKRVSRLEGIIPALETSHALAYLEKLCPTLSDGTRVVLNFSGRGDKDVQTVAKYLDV
Method: The plant TS proteins were expressed as fusion proteins with glutathione transferase (GST) to facilitate purification. After purification, the GST protein was cleaved off with thrombin as described above before the plant TS assays were performed. After thrombin cleavage, both TSα and TSβ-subunit proteins retained a Gly-Ser residue on the N-terminal of the protein in addition to the TS sequence. […]
The TSα enzyme assay was conducted as described in Example 3 for Salmonella TSα.
Specifically, phenylthiophosphonic acid compounds were used. The TSα assay conditions were as described for Salmonella TSα in Example 3 except that recombinant plant proteins were used instead of the Salmonella enzyme.

Compound	herbicidal injury rating (Arabidopsis thaliana; herbicide 7.8 μM)	herbicidal injury rating (Arabidopsis thaliana; herbicide 16 μM)	herbicidal injury rating (Arabidopsis thaliana; herbicide 31 μM)	herbicidal injury rating (Arabidopsis thaliana; herbicide 63 μM)	herbicidal injury rating (Arabidopsis thaliana; herbicide 125 μM)	herbicidal injury rating (Arabidopsis thaliana; herbicide 250 μM)	herbicidal injury rating (Arabidopsis thaliana; herbicide 500 μM)	herbicidal injury rating (Arabidopsis thaliana; herbicide 1000 μM)	also measured
CCOP(=O)(CCCCSc1cc(Br)ccc1N)OCC [Phosphonic acid, {4-[2-amino-5-bromophenyl)thio]butyl}-, diethyl ester]	1	1	1	1	4	5	6	8	–
Nc1ccccc1SCCCCP(=O)(O)O [Phosphonic acid, {4-[(o-aminophenyl)thio]butyl}-, dilithium salt]	–	–	–	–	–	–	–	–	IC50 ([1]; TSα reaction, read-out: TS inhibition I50): 400 nM
CCOP(=O)(CCCCSc1ccccc1O)OCC [Phosphonic acid, {4-[(o-hydroxyphenyl)thio]butyl}-, diethyl ester]	0	1	3	5	6	7	8	9	–
Nc1ccc(Br)cc1SCCCCP(=O)(O)O [Phosphonic acid, {4-[2-amino-5-bromophenyl)thio]butyl}-]	1	1	2	3	3	4	4	4	IC50 ([1]; TS inhibition I50, TSα reaction): 70 nM; Enzyme activity, % of control ([1]; inhibitor 30 nM): 70.5 % of control; Enzyme activity, % of control ([1]; inhibitor 100 nM): 38.5 % of control; Enzyme activity, % of control ([1]; inhibitor 300 nM): 24.7 % of control; Enzyme activity, % of control ([1]; inhibitor 1000 nM): 8.7 % of control
O=P(O)(O)CC=CCSc1ccccc1O [Phosphonic acid, {4-[(o-hydroxyphenyl)thio]-2-butenyl}-]	–	–	–	–	–	–	–	–	TSα activity, % of control (Arabidopsis TS enzyme): 14.7 % of control; TSα activity, relative Vmax (Arabidopsis TS enzyme): 0.909 mOD/min
Nc1ccc(Cl)cc1SCCCCP(=O)(O)O [Phosphonic acid, {4-[(2-amino-5-chlorophenyl)thio]butyl}-]	0	1	1	1	3	3	3	3	–
Phosphonic acid, {4-[(o-hydroxyphenyl)thio]butyl}-,aryl-butyrate (ester)	–	–	–	–	–	–	–	–	herbicidal rating (Arabidopsis thaliana; herbicide 7.8 mM + 100 μM Trp): 1; herbicidal rating (Arabidopsis thaliana; herbicide 7.8 mM, no Trp): 5; herbicidal rating (Arabidopsis thaliana; herbicide 16 mM + 100 μM Trp): 1; herbicidal rating (Arabidopsis thaliana; herbicide 16 mM, no Trp): 6; herbicidal rating (Arabidopsis thaliana; herbicide 31 mM + 100 μM Trp): 1; herbicidal rating (Arabidopsis thaliana; herbicide 31 mM, no Trp): 6; herbicidal rating (Arabidopsis thaliana; herbicide 63 mM + 100 μM Trp): 3; herbicidal rating (Arabidopsis thaliana; herbicide 63 mM, no Trp): 7; herbicidal rating (Arabidopsis thaliana; herbicide 125 mM + 100 μM Trp): 5; herbicidal rating (Arabidopsis thaliana; herbicide 125 mM, no Trp): 7; herbicidal rating (Arabidopsis thaliana; herbicide 250 mM + 100 μM Trp): 5; herbicidal rating (Arabidopsis thaliana; herbicide 250 mM, no Trp): 7; herbicidal rating (Arabidopsis thaliana; herbicide 500 mM + 100 μM Trp): 3; herbicidal rating (Arabidopsis thaliana; herbicide 500 mM, no Trp): 7; herbicidal rating (Arabidopsis thaliana; herbicide 1000 mM + 100 μM Trp): 3; herbicidal rating (Arabidopsis thaliana; herbicide 1000 mM, no Trp): 7; TSα activity, % of control (Arabidopsis TS enzyme): 2.1 % of control; TSα activity, relative Vmax (Arabidopsis TS enzyme): 0.133 mOD/min

Reference: patent US20050050594A1, “Tryptophan synthase as a site of herbicide action” (priority 1999, published 2005)
